Measurements from publication PMC6109596 (Cancer letters, 2018).

Biological target: ABCB1 (P-glycoprotein/MDR1) (Homo sapiens, UniProt P08183)
Assay: biochemical

ABCB1 (P-glycoprotein/MDR1), sequence (P08183 whole entry): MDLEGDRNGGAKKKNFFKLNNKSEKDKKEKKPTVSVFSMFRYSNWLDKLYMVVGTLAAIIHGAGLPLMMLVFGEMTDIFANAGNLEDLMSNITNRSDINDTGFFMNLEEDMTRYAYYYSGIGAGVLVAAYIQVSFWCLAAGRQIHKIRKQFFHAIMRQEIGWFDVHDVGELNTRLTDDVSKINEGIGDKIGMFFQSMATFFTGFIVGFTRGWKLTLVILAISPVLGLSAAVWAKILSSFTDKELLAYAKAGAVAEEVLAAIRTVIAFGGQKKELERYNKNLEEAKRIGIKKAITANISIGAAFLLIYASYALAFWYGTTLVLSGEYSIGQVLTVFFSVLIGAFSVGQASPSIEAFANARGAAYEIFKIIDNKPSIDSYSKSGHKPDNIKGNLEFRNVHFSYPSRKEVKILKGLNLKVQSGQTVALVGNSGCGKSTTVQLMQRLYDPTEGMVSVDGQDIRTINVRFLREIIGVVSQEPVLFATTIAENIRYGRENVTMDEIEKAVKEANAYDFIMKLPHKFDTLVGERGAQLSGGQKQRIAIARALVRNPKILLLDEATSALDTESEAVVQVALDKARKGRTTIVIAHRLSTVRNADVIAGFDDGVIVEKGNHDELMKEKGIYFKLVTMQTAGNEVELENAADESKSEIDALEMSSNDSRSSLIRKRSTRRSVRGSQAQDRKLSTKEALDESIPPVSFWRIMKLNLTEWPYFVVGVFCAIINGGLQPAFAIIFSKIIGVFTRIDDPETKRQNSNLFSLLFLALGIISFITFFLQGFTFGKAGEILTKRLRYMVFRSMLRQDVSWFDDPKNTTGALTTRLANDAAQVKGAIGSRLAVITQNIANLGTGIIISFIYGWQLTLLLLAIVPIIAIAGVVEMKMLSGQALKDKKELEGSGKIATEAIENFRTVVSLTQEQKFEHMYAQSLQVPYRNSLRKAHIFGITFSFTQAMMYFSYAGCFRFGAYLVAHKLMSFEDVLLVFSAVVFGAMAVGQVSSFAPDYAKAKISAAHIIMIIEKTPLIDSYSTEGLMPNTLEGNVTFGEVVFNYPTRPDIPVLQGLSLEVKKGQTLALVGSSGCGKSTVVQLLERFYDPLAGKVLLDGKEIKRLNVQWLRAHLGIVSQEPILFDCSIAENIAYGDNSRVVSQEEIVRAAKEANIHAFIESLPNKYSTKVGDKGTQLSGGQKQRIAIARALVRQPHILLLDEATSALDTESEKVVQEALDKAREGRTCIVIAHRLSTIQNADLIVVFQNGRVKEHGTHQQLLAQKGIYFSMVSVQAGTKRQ

- IC50: ~500 nM
Structure (SMILES): N#Cc1cc2c(OCC(O)CN3CCN(C(c4ccccc4)c4ccccc4)CC3)cccc2[nH]1 (racemic) [DPI-201106]
